The results in this text go back to patent US7498337B2, “Acid secretion inhibitor” (Takeda Pharmaceutical Company Limited, priority 2005, dated 2009).

The target in data set [1] is T1, H+,K+-ATPase (gastric mucous membrane microsomal fraction) (Sus scrofa, UniProt P19156).
T1 construct: The obtained microsomal fraction was used as a proton, potassium-adenosine triphosphatase standard product; from tissue; host or cells: swine stomach, gastric mucous membrane microsomal fraction
Nature of the data set: Proton potassium-adenosine triphosphatase (H+,K+-ATPase) inhibitory activity test. Type of data set: biochemical. The following applies: swine gastric microsomal fraction, pH 6.5, 37° C., 30 min preincubation. The method, then:
Proton Potassium-Adenosine Triphosphatase (H^+,K^+-ATPase) Inhibitory Activity Test According to the method [Biochim. Biophys. Acta, 728, 31 (1983)] of Wallmark et al., a gastric mucous membrane microsomal fraction was prepared from the stomach of swine. First, the stomach was removed, washed with tap water, immersed in 3 mol/L brine, and the surface of the mucous membrane was wiped with a paper towel. The gastric mucous membrane was detached, chopped, and homogenized in a 0.25 mol/L saccharose solution (pH 6.8) containing 1 mmol/L EDTA and 10 mmol/L tris-hydrochloric acid using polytron (Kinematica). The obtained homogenate was centrifuged at 20,000×g for 30 min and the supernatant was centrifuged at 100,000×g for 90 min. The precipitate was suspended in 0.25 mol/L saccharose solution, superimposed on a 0.25 mol/L saccharose solution containing 7.5% Ficoll, and centrifuged at 100,000×g for 5 hr. The fraction containing the interface between the both layers was recovered, and centrifugally washed with 0.25 mol/L saccharose solution. The obtained microsomal fraction was used as a proton, potassium-adenosine triphosphatase standard product. […] The enzyme reaction was started by adding 5 μL of a 2 mmol/L-adenosine triphosphate tris salt solution (50 mmol/L HEPES-tris buffer (5 mmol/L magnesium chloride, pH 6.5)). The enzyme reaction was carried out at 37° C. for 20 min, and 15 μL of a malachite green solution (0.12% malachite green solution in sulfuric acid (2.5 mol/L), 7.5% ammonium molybdate and 11% Tween 20 were mixed at a ratio of 100:25:2) was added to quench the reaction. […] In addition, the amount of the inorganic phosphoric acid in the reaction solution free of potassium chloride was measured in the same manner, which was subtracted from the inorganic phosphoric acid amount in the presence of potassium chloride to determine the proton, potassium-adenosine triphosphatase activity.

Data set [2] concerns HepG2 cells. Nature of the data set: Intracellular ATP content in HepG2 cells (cytotoxicity). The following applies: HepG2, 30 μM, culture for one day, relative value to control, ATPLite, n≧3 average. Type of data set: cell-based, human. The method, then: Human liver cancer-derived cell line HepG2 (ATCC No. HB-8065) was passaged using Dulbecco's Modified Eagle medium (DMEM; Invitrogen) containing 10% fetal bovine serum (FBS; TRACE SCIENTIFIC LTD.), 1 mmol/L sodium pyruvate (Invitrogen), 2 mmol/L L-glutamine (Invitrogen), 50 IU/mL penicillin (Invitrogen) and 50 μg/mL streptomycin (Invitrogen) at 5% CO2, 37° C. The test reagent was prepared with DMSO to 10 mM, and further diluted with DMEM medium containing 0.5% FBS, 1 mmol/L sodium pyruvate, 2 mmol/L L-glutamine, 50 IU/mL penicillin and 50 μg/mL streptomycin to a final concentration of DMSO of 0.1%. HepG2 (2×10^4 cells/well) was cultured on a 96 well white plate (Costar) with the test reagent at 5% CO2, 37° C. After culture for one day, the intracellular ATP content was measured using ATPLite™ (PerkinElmer Life Sciences). The results are shown in Table 24 (n≧3, average value±SD) as a relative value (%) to control (without addition of drug) at 30 μM.

As a reminder, the IC50 is the concentration that gives 50% inhibition. A higher IC50 goes with weaker potency in that assay.

T1 sequence (P19156 2-1034 limits assumed): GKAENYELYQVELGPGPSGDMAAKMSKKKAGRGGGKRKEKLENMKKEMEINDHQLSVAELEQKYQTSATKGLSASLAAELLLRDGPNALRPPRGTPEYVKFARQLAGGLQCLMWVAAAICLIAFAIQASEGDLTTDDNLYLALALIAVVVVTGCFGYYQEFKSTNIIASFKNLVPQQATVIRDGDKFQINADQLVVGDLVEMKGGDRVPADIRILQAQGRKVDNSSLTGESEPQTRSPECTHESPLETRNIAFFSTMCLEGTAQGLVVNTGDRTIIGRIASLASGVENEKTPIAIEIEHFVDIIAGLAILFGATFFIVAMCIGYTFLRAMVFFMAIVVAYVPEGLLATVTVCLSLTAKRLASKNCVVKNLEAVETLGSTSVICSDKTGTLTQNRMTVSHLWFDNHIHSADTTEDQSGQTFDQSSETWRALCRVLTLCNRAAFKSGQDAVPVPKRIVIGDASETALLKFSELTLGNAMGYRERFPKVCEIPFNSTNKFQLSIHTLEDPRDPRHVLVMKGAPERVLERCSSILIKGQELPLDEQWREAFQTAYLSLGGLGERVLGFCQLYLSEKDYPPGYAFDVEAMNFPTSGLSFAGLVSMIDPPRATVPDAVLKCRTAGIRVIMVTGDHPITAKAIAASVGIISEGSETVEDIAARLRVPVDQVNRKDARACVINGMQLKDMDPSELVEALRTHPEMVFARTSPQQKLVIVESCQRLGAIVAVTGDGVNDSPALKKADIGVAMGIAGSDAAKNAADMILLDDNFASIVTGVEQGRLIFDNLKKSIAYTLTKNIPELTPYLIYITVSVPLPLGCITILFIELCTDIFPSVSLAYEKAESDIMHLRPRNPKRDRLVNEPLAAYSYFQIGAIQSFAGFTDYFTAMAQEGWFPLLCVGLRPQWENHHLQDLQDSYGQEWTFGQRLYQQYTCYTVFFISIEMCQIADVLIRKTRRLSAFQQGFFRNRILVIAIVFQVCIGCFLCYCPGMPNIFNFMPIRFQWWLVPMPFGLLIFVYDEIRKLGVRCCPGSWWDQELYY
T1 sequence (P18434 whole entry partner): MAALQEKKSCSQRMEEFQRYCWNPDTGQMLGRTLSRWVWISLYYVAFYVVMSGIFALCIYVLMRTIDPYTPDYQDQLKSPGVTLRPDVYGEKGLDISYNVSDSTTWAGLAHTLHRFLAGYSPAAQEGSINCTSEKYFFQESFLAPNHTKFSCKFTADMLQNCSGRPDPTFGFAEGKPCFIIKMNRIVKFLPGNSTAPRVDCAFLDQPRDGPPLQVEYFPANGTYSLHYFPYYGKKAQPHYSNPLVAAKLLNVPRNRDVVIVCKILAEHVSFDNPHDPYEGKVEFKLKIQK

`CNCc1cc(-c2cscc2C)n(S(=O)(=O)c2cccnc2)c1.Cl.Cl` [Example 29, N-methyl-1-[5-(4-methyl-3-thienyl)-1-(pyridin-3-ylsulfonyl)-1H-pyrrol-3-yl]methanamine dihydrochloride]: the IC50 in data set [1] is 41 nM. The “ATP content (%, 30 μM)” value in data set [2] is given as 71.5%.

In data set [1], `CNCc1cc(-c2ccc(F)cc2F)n(S(=O)(=O)c2cccnc2)c1.Cl.Cl` [Example 32, 1-[5-(2,4-difluorophenyl)-1-(pyridin-3-ylsulfonyl)-1H-pyrrol-3-yl]-N-methylmethanamine dihydrochloride] returned an IC50 of 8.9 nM. Also, the “ATP content (%, 30 μM)” value in data set [2] turned out to be 53.6%.

On to `CNCc1cc(-c2ccccc2C)n(S(=O)(=O)c2cccnc2)c1.O=C(O)/C=C/C(=O)O` [Example 47, N-methyl-1-[5-(2-methylphenyl)-1-(pyridin-3-ylsulfonyl)-1H-pyrrol-3-yl]methanamine fumarate], for which half-maximal inhibition in data set [1] (IC50) was put at 58 nM. Also, the “ATP content (%, 30 μM)” value in data set [2] amounted to 81.8%.

Take `CNCc1cn(S(=O)(=O)c2cccnc2)c(-c2ccccc2)c1F.Cl.Cl` [Example 41, 1-[4-fluoro-5-phenyl-1-(pyridin-3-ylsulfonyl)-1H-pyrrol-3-yl]-N-methylmethanamine dihydrochloride]: the IC50 in data set [1] was 43 nM. Also, the “ATP content (%, 30 μM)” value in data set [2] came out at 86.7%.

For `CNCc1cc(-c2ccccc2)n(S(=O)(=O)c2cnc(NC)nc2)c1.Cl` [Example 5, N-methyl-1-{1-[2-(methylamino)pyrimidin-5-ylsulfonyl]-5-phenyl-1H-pyrrol-3-yl}methanamine hydrochloride], the half-maximal inhibitory concentration (IC50) in data set [1] came to 65 nM. Besides, the “ATP content (%, 30 μM)” value in data set [2] was 73.9%.

For `CNCc1cc(-c2ccccc2)n(S(=O)(=O)c2ccc(OC)nc2)c1.Cl` [Example 2, 1-{1-[(6-methoxypyridin-3-yl)sulfonyl]-5-phenyl-1H-pyrrol-3-yl}-N-methylmethanamine hydrochloride], the 50% inhibitory concentration (IC50) in data set [1] worked out at 13 nM. The “ATP content (%, 30 μM)” value in data set [2] was 45.2%.

With `CNCc1cc(-c2ccccc2F)n(S(=O)(=O)c2ccc(C)nc2)c1.Cl.Cl` [Example 44, 1-{5-(2-fluorophenyl)-1-[(6-methylpyridin-3-yl)sulfonyl]-1H-pyrrol-3-yl}-N-methylmethanamine dihydrochloride], in data set [1], the midpoint of inhibition, the IC50, lay at 48 nM. The “ATP content (%, 30 μM)” value in data set [2] was found to be 78.5%.

For `CNCc1cc(-c2ccccc2)n(S(=O)(=O)c2cnc(C)nc2)c1.Cl.Cl` [Example 7, N-methyl-1-[1-(2-methylpyrimidin-5-ylsulfonyl)-5-phenyl-1H-pyrrol-3-yl]-methanamine dihydrochloride], the IC50 in data set [1] amounted to 34 nM. Besides, the “ATP content (%, 30 μM)” value in data set [2] stood at 76.5%.

On to `CNCc1cc(-c2ccccc2F)n(S(=O)(=O)c2cccnc2)c1.O=C(O)/C=C/C(=O)O` [Example 8, 1-[5-(2-fluorophenyl)-1-(pyridin-3-ylsulfonyl)-1H-pyrrol-3-yl]-N-methylmethanamine fumarate], for which the IC50 in data set [1] amounted to 22 nM. In data set [2], the “ATP content (%, 30 μM)” value turned out to be 87.9%.

Regarding `CNCc1cc(-c2cccnc2F)n(S(=O)(=O)c2cccnc2)c1.O=C(O)/C=C/C(=O)O` [Example 74, 1-[5-(2-fluoropyridin-3-yl)-1-(pyridin-3-ylsulfonyl)-1H-pyrrol-3-yl]-N-methylmethanamine fumarate], in data set [1], the IC50 is 210 nM. Further, the “ATP content (%, 30 μM)” value in data set [2] was 95.2%.
